Test results taken from ChEMBL document CHEMBL3272271, “Folate antagonists. 13. 2,4-Diamino-6-](alpha,alpha,alpha-trifluoro-m-tolyl)thio]quinazoline and related 2,4-diamino-6-[(phenyl- and naphthyl)thio]quinazolines, a unique class of antimetabolites with extraordinary antimalarial and antibacterial effects” (J Med Chem, 1978).
Converted amounts (≈) assume the structure as drawn. The source made the active and inactive calls. The calls are words filed in the database; no cut-off is given here.

Experiments:
[1] = tested on: Plasmodium gallinaceum; assay: Antimalarial activity against trophozoite-induced Plasmodium gallinaceum infected in white leghorn chicken assessed as disease cure from parasite infection at 160 mg/kg, sc administered 72 hrs after infection; format: functional, organism-based; design: dose 160 mg/kg
[2] = tested on: Gallus gallus; assay: Toxicity in trophozoite-induced Plasmodium gallinaceum infected white leghorn chicken assessed as mortality at 320 mg/kg, sc administered 72 hrs after infection measured after 48 hrs; format: organism-based; design: dose 320 mg/kg, route subcutaneous; details: in vivo
[3] = tested on: Enterococcus faecalis; assay: Antibacterial activity against Streptococcus faecalis MGH-2 by gradient plate test; format: functional
[4] = tested on: Staphylococcus aureus; assay: Antibacterial activity against Staphylococcus aureus UC-96 by gradient plate test; format: functional
[5] = tested on: Staphylococcus aureus; assay: Antibacterial activity against drug-resistant Staphylococcus aureus S18713 by gradient plate test; format: functional
[6] = tested on: Pseudomonas aeruginosa; assay: Antibacterial activity against Pseudomonas aeruginosa 28 by gradient plate test; format: functional
[7] = tested on: Escherichia coli; assay: Antibacterial activity against Escherichia coli Vogel by gradient plate test; format: functional
[8] = tested on: Shigella sonnei; assay: Antibacterial activity against Shigella sonnei C-10 by gradient plate test; format: functional
[9] = tested on: Plasmodium gallinaceum; assay: Antimalarial activity against sporozoite-induced Plasmodium gallinaceum infected in white leghorn chicken assessed as disease cure from parasite infection at 320 mg/kg, sc administered 72 hrs after infection; format: functional, organism-based; design: dose 320 mg/kg
[10] = tested on: Gallus gallus; assay: Toxicity in sporozoite-induced Plasmodium gallinaceum infected white leghorn chicken assessed as mortality at 320 mg/kg, sc administered 72 hrs after infection measured up to 6 days; format: organism-based; design: dose 320 mg/kg, route subcutaneous; details: in vivo
[11] = tested on: Plasmodium gallinaceum; assay: Antimalarial activity against sporozoite-induced Plasmodium gallinaceum infected in white leghorn chicken assessed as disease cure from parasite infection at 160 mg/kg, sc administered 72 hrs after infection; format: functional, organism-based; design: dose 160 mg/kg
[12] = tested on: Gallus gallus; assay: Toxicity in sporozoite-induced Plasmodium gallinaceum infected white leghorn chicken assessed as mortality at 160 mg/kg, sc administered 72 hrs after infection measured up to 6 days; format: organism-based; design: dose 160 mg/kg, route subcutaneous; details: in vivo
[13] = tested on: Plasmodium gallinaceum; assay: Antimalarial activity against sporozoite-induced Plasmodium gallinaceum infected in white leghorn chicken assessed as increase in mean survival days of host at 80 mg/kg, sc administered 72 hrs after infection relative to control; format: functional; details: route subcutaneous
[14] = tested on: Plasmodium gallinaceum; assay: Antimalarial activity against sporozoite-induced Plasmodium gallinaceum infected in white leghorn chicken assessed as disease cure from parasite infection at 80 mg/kg, sc administered 72 hrs after infection; format: functional, organism-based; design: dose 80 mg/kg
[15] = tested on: Gallus gallus; assay: Toxicity in sporozoite-induced Plasmodium gallinaceum infected white leghorn chicken assessed as mortality at 80 mg/kg, sc administered 72 hrs after infection measured up to 6 days; format: organism-based; design: dose 80 mg/kg, route subcutaneous; details: in vivo
[16] = tested on: Plasmodium gallinaceum; assay: Antimalarial activity against sporozoite-induced Plasmodium gallinaceum infected in white leghorn chicken assessed as increase in mean survival days of host at 40 mg/kg, sc administered 72 hrs after infection relative to control; format: functional; details: route subcutaneous
[17] = tested on: Plasmodium gallinaceum; assay: Antimalarial activity against sporozoite-induced Plasmodium gallinaceum infected in white leghorn chicken assessed as disease cure from parasite infection at 40 mg/kg, sc administered 72 hrs after infection; format: functional, organism-based; design: dose 40 mg/kg
[18] = tested on: Plasmodium gallinaceum; assay: Antimalarial activity against sporozoite-induced Plasmodium gallinaceum infected in white leghorn chicken assessed as increase in mean survival days of host at 20 mg/kg, sc administered 72 hrs after infection relative to control; format: functional; details: route subcutaneous
[19] = tested on: Plasmodium gallinaceum; assay: Antimalarial activity against sporozoite-induced Plasmodium gallinaceum infected in white leghorn chicken assessed as disease cure from parasite infection at 20 mg/kg, sc administered 72 hrs after infection; format: functional, organism-based; design: dose 20 mg/kg
[20] = tested on: Plasmodium gallinaceum; assay: Antimalarial activity against sporozoite-induced Plasmodium gallinaceum infected in white leghorn chicken assessed as increase in mean survival days of host at 10 mg/kg, sc administered 72 hrs after infection relative to control; format: functional; details: route subcutaneous
[21] = tested on: Plasmodium gallinaceum; assay: Antimalarial activity against sporozoite-induced Plasmodium gallinaceum infected in white leghorn chicken assessed as increase in mean survival days of host at 5 mg/kg, sc administered 72 hrs after infection relative to control; format: functional; details: route subcutaneous
[22] = tested on: Plasmodium berghei; assay: Antimalarial activity against Plasmodium berghei infected in mouse assessed as increase in mean survival days of host at 160 mg/kg, sc administered 72 hrs after infection relative to control; format: functional; details: route subcutaneous
[23] = tested on: Plasmodium berghei; assay: Antimalarial activity against Plasmodium berghei infected in mouse assessed as increase in mean survival days of host at 80 mg/kg, sc administered 72 hrs after infection relative to control; format: functional; details: route subcutaneous
[24] = tested on: Plasmodium berghei; assay: Antimalarial activity against Plasmodium berghei infected in mouse assessed as increase in mean survival days of host at 40 mg/kg, sc administered 72 hrs after infection relative to control; format: functional; details: route subcutaneous
[25] = tested on: Plasmodium berghei; assay: Antimalarial activity against Plasmodium berghei infected in mouse assessed as increase in mean survival days of host at 20 mg/kg, sc administered 72 hrs after infection relative to control; format: functional; details: route subcutaneous
[26] = tested on: Plasmodium berghei; assay: Antimalarial activity against Plasmodium berghei infected in mouse assessed as increase in mean survival days of host at 10 mg/kg, sc administered 72 hrs after infection relative to control; format: functional; details: route subcutaneous
[27] = tested on: Plasmodium berghei; assay: Antimalarial activity against Plasmodium berghei infected in mouse assessed as disease cure from parasite infection at 640 mg/kg, sc administered 72 hrs after infection; format: functional, organism-based; design: dose 640 mg/kg
[28] = tested on: Plasmodium berghei; assay: Antimalarial activity against Plasmodium berghei infected in mouse assessed as disease cure from parasite infection at 320 mg/kg, sc administered 72 hrs after infection; format: functional, organism-based; design: dose 320 mg/kg
[29] = tested on: Plasmodium berghei; assay: Antimalarial activity against Plasmodium berghei infected in mouse assessed as disease cure from parasite infection at 160 mg/kg, sc administered 72 hrs after infection; format: functional, organism-based; design: dose 160 mg/kg
[30] = tested on: Mus musculus; assay: Toxicity in Plasmodium berghei infected mouse assessed as mortality at 640 mg/kg, sc administered 72 hrs after infection measured after 2 to 5 days; format: organism-based; design: dose 640 mg/kg, route subcutaneous; details: in vivo
[31] = tested on: Plasmodium berghei; assay: Antimalarial activity against trophozoite-induced Plasmodium berghei infected in mouse assessed as daily dose required to suppression of 90% parasite infection administered with diet for 6 days; format: functional
[32] = tested on: Plasmodium berghei; assay: Ratio of quinine hydrochloride SD90 to compound SD90 for trophozoite-induced Plasmodium berghei infected in mouse assessed as daily dose required to suppression of 90% parasite infection administered with diet for 6 days; format: functional
[33] = tested on: Plasmodium gallinaceum; assay: Antimalarial activity against trophozoite-induced Plasmodium gallinaceum infected in white leghorn chicken assessed as increase in mean survival days of host at 160 mg/kg, sc administered 72 hrs after infection relative to control; format: functional; details: route subcutaneous
[34] = tested on: Plasmodium gallinaceum; assay: Antimalarial activity against trophozoite-induced Plasmodium gallinaceum infected in white leghorn chicken assessed as increase in mean survival days of host at 80 mg/kg, sc administered 72 hrs after infection relative to control; format: functional; details: route subcutaneous
[35] = tested on: Plasmodium gallinaceum; assay: Antimalarial activity against trophozoite-induced Plasmodium gallinaceum infected in white leghorn chicken assessed as increase in mean survival days of host at 40 mg/kg, sc administered 72 hrs after infection relative to control; format: functional; details: route subcutaneous
[36] = tested on: Plasmodium gallinaceum; assay: Antimalarial activity against trophozoite-induced Plasmodium gallinaceum infected in white leghorn chicken assessed as increase in mean survival days of host at 20 mg/kg, sc administered 72 hrs after infection relative to control; format: functional; details: route subcutaneous
[37] = tested on: Plasmodium gallinaceum; assay: Antimalarial activity against trophozoite-induced Plasmodium gallinaceum infected in white leghorn chicken assessed as increase in mean survival days of host at 10 mg/kg, sc administered 72 hrs after infection relative to control; format: functional; details: route subcutaneous
[38] = tested on: Plasmodium gallinaceum; assay: Antimalarial activity against trophozoite-induced Plasmodium gallinaceum infected in white leghorn chicken assessed as increase in mean survival days of host at 5 mg/kg, sc administered 72 hrs after infection relative to control; format: functional; details: route subcutaneous
[39] = tested on: Plasmodium gallinaceum; assay: Antimalarial activity against trophozoite-induced Plasmodium gallinaceum infected in white leghorn chicken assessed as increase in mean survival days of host at 2.5 mg/kg, sc administered 72 hrs after infection relative to control; format: functional; details: route subcutaneous
[40] = tested on: Plasmodium gallinaceum; assay: Antimalarial activity against trophozoite-induced Plasmodium gallinaceum infected in white leghorn chicken assessed as increase in mean survival days of host at 1.25 mg/kg, sc administered 72 hrs after infection relative to control; format: functional; details: route subcutaneous
[41] = tested on: Plasmodium gallinaceum; assay: Antimalarial activity against trophozoite-induced Plasmodium gallinaceum infected in white leghorn chicken assessed as increase in mean survival days of host at 0.63 mg/kg, sc administered 72 hrs after infection relative to control; format: functional; details: route subcutaneous

Cc1cccc(Sc2ccc3nc(N)nc(N)c3c2)c1
Activity [1]: Active | Activity [2]: Toxic | MIC [3]: < 0.25 mg/L | MIC [4]: < 0.25 mg/L | MIC [5]: < 0.25 mg/L | MIC [6]: > 25 mg/L | MIC [7]: < 0.25 mg/L | MIC [8]: 1.5 mg/L (≈ 5.31 µM) | Activity [9]: Active | Activity [10]: Toxic | Activity [11]: Active | Activity [12]: Toxic | MST [13]: 4.7 days | Activity [14]: Active | Activity [15]: Toxic | MST [16]: 1.7 days | Activity [17]: Active | MST [18]: 3.8 days | Activity [19]: Active | MST [20]: 1.8 days | MST [21]: 0.3 days | MST [22]: 12.7 days | MST [23]: 7.7 days | MST [24]: 6.7 days | MST [25]: 2.3 days | MST [26]: 2.4 days | Activity [27]: Active | Activity [28]: Active | Activity [29]: Active | Activity [30]: Toxic | SD90 [31]: 6.2 mg/kg/day | Ratio [32]: 12 | MST [33]: 10.7 days | MST [34]: 7.8 days | MST [35]: 6.4 days | MST [36]: 6.2 days | MST [37]: 6 days | MST [38]: 0 days | MST [39]: 0 days | MST [40]: 0 days | MST [41]: 0 days
